This is an account of results in paper PMC5874820 (Pharmaceutics, 2018).

One data set deals with PANC-1 xenograft tumor. The experiment in a line: In vivo PANC-1 tumor growth xenograft model. Also on record: species or system female athymic nude mice. Particulars: for percentage of inhibition of tumor growth: Panc-1 xenograft in nude mice. The method, then: The PANC-1 cells derived from human pancreatic carcinoma of ductal cell origin were obtained from National Center for Cell Science, Pune, India. The cells were cultured in Dulbecco's modified medium (DMEM) supplemented with 10% v/v fetal bovine serum (FBS), 1% penicillin, and 1% streptomycin. Cultures (Figure S1, Supplementary Materials) were maintained at 37 °C in a humidified atmosphere with 5% CO2. Female athymic nude mice were obtained from the National Centre for Laboratory Animal Sciences (NCLAS), National Institute of Nutrition (ICMR), Hyderabad, India and were selected after careful initial screening for any external signs of disease or injuries. They were housed in individual cages in the conventional animal facilities of NCLAS, a registered facility with Committee for the Purpose of Control and Supervision of Experimentation on Animals (CPCSEA) (154/1999), Government of India. The environmental conditions were kept at 21 ± 2 °C, with 10-15 air changes per hour and relative humidity of 50-55 percent with 12 h light/dark cycle water. Animals were quarantined for 4 days and all the animals had free access to sterile formulated feed pellets and filtered potable clean water. PANC-1 cells (1 × 10^6) using matrigel were injected subcutaneously into the flanks of mice (Figure S2, Supplementary Materials). […] Each mouse was administered orally (p.o.) every day with either control vehicle (CMC), CUR (50 mg/kg), ART (50 mg/kg), CUR-ART (50 and 100 mg/kg) and Doxorubicin (2 mg/kg) by intravenous (i.v.) route. […] At the same time, the body weight of each animal was measured. At the end of the experiment (4 weeks after cell inoculation), the animals were euthanized by CO2 and sacrificed. Tumors from each animal were removed and measured. Each value represents mean ± SD (Standard Deviation). The control and experimental animal groups were compared by paired t-test. **** p < 0.0001 was considered significant.

Data set [1] is described as follows: Supersaturation study in SGF and SIF (without enzyme), UV at 420 nm. The format is physicochemical. Particulars: 100 µg/mL CUR, 30 °C. Here is the method: Supersaturation of CUR and CUR-ART were measured in SGF and SIF (without enzyme) medium at 30 °C. The supersaturated solution (CUR 100 µg/mL dissolved in 5 mL of SGF/SIF fluid) was stirred at 800 rpm using a magnetic stirrer at 30 °C. After regular intervals of time 2, 4, 6, 12 and 24 h the solution concentration of curcumin was determined at 420 nm maxima on a Thermo Scientific Evolution 300 UV-Vis spectrometer (Thermo Scientific, Waltham, MA, USA).

Details of data set [2]: method as in PMID 17999464, PMID 1529022. Particulars: cited from earlier work.
The nature of data set [3]: Pharmacokinetic study, oral gavage, curcumin in plasma by HPLC. To be noted: oral administration, SD rats.
Procedure: Sprague-Dawley rats (200 ± 50 g) were obtained from Sainath Agencies Limited (Hyderabad, India). Animals were acclimatized for 1 week prior to experimentation in a temperature-controlled, 12/12 h light/dark room, and were allowed standard laboratory food and water. The rats were fasted overnight (~18 h) with free access to water before the experiment.
All compounds (200 mg/kg) were suspended in 1% sodium carboxymethylcellulose (CMC) separately and administered by oral gavage. Blood (0.4 mL) was withdrawn from retro-orbital plexus into lithium heparin tube at the following times after drug administration: 30, 45, 60, 90, 120, 180, 240, 360, 480 and 720 min. […]
Curcumin Plasma concentrations of CUR were analyzed by HPLC (Shimadzu, Mumbai, India). The area under the curve (AUC) for serum concentration versus time plots was calculated by linear trapezoidal rate. […]
The HPLC analyses were performed using a Shimadzu Prominence model LC-20AD equipped with 20 mL injection loop, and a photodiode array detector and CUR detected at 420 nm. […]
The standard curve was calculated by a linear relationship between concentration and area with regression factor R = 0.999. The Area under the curve (AUC) for serum concentration vs. Time plots was calculated by the linear trapezoidal rule. […]
For data set [4] the following is noted: cited from earlier work.
Details of data set [5]: method as in doi:10.1039/C4RA11935E. To be noted: curcumin (crystalline), oral dose of 200 mg/kg, male SD rats; cited from earlier work.
Where [6] appears, read: pure curcumin, reference not given.

Read-outs that look alike come from different tables or passages of the source. Bounds are passed on as bounds.

In the case of `COc1cccc2c1C(=O)c1c(O)c3c(c(O)c1C2=O)C[C@@](O)(C(=O)CO)C[C@@H]3O[C@H]1C[C@H](N)[C@H](O)[C@H](C)O1` [doxorubicin], the “percentage of inhibition of tumor growth” value in the data set on PANC-1 xenograft tumor (2 mg/kg i.v. daily) is 69.97%. For the same compound, in the data set with PANC-1 xenograft tumor (p < 0.0001, Panc-1 xenograft in nude mice), the “effect on tumor size compared to other solids and controls” value is reported as “decreased tumor size significantly”.
On to Curcumin, for which the “precipitation / residence time of solubilized CUR” value in data set [1] was “precipitated faster than CUR-ART”. In addition, the aqueous solubility – broadly, the concentration that dissolves in the medium under given conditions – in data set [2] is recorded as 7.8 µg/mL. Also, the “percentage of inhibition of tumor growth” value with PANC-1 xenograft tumor (50 mg/kg p.o. daily) was determined as 41.23%. The “detectable curcumin levels in the serum” value in data set [3] is “did not show any detectable levels”. The “detection by HPLC at higher dosage levels” value in data set [4] (dosage >1 g/kg, ref recent reports) is recorded as “could not be detected”. The half-life (in general, how long it takes for the measured level to halve) in data set [4] (pure curcumin in crystalline form, reference not given) is 45 to 60 min. Further, in data set [4] (setting [6]), the half-life was less than 60 min and the “time in which it decomposes” value is given as “less than 1 h”. In data set [5], the “plasma concentration by HPLC” value was “no plasma concentration for curcumin (crystalline) could be detected”.
For the compound `C[C@@H]1CC[C@H]2[C@@H](C)C(=O)O[C@@H]3O[C@@]4(C)CC[C@@H]1[C@]32OO4` [ART, Artemisinin], the “percentage of inhibition of tumor growth” value in the data set on PANC-1 xenograft tumor (50 mg/kg p.o. daily) came to 29.22%.
